Source: patent US8846656B2, “Tetrahydropyrido-pyridine and tetrahydropyrido-pyrimidine compounds and use thereof as C5a receptor modulators” (Novartis AG, priority 2011, dated 2014)
Like-named read-outs stand apart in the source and are kept apart here.

Columns and labels:
CD11b = test: Human whole blood CD11b up-regulation assay; type: cell-based; settings: 2 nM human C5a, CD15+ granulocytes, read-out: hCD11b IC50
In short: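 Heparinized human whole blood (used within 2 h) preincubated 10 min at room temperature with compound in 1% DMSO, then stimulated with 2 nM human C5a for 15 min. After anti-CD15/anti-CD11b staining on ice and RBC lysis, CD11b median fluorescence on 10,000 CD15+ granulocytes measured by flow cytometry.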

human C5aR = human C5aR (Homo sapiens (Human), UniProt P21730); test: FLIPR assay: inhibition of C5a-mediated calcium mobilization; type: cell-based; settings: stable cell line over expressing human C5aR & Gα15, human C5a at EC50 (0.1-0.25 nM)
Sequence of human C5aR (P21730 whole entry): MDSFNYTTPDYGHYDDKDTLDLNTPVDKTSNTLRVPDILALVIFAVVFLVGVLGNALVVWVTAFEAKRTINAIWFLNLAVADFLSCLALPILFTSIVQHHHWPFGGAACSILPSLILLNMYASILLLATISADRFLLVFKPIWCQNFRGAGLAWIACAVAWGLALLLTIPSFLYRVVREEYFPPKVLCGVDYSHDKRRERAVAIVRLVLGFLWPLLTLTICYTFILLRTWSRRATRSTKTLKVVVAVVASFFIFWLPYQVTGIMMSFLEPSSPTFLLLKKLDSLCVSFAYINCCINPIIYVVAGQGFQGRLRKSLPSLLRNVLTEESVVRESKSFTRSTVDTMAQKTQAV
In short: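 Stable cell line overexpressing human C5aR with Gα15, measured on FLIPR Tetra. Cells loaded 1 h at 37° C with calcium 5 dye and 2.5 mM probenecid in HBSS/20 mM HEPES/0.1% BSA. Compounds preincubated 30 minutes at room temperature in 1% DMSO before C5a.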

Row | IC50 (CD11b; Homo sapiens) [µM] | IC50 (human C5aR) [µM] | SMILES | IC50 (CD11b) [µM]
1 | 0.018 | 0.008 | CO[C@@H]1CCN(c2nc(-c3c(C)cccc3C)nc3c2CN(c2cc(C4CC4)nn2C)CC3)[C@H](C)C1 [Example 23-D, 6-(3-cyclopropyl-1-methyl-1H-pyrazol-5-yl)-2-(2,6-dimethylphenyl)-4-((2R,4R)-4-methoxy-2-methylpiperidin-1-yl)-5,6,7,8-tetrahydropyrido[4,3-d]pyrimidine] | –
2 | 0.028 | 0.005 | CO[C@H]1CCN(c2nc(-c3c(C(C)C)ccc4[nH]ncc34)nc3c2CN(c2cc(C(C)C)nn2C)CC3)CC1(C)C [Example 23-F, (S)-6-(3-isopropyl-1-methyl-1H-pyrazol-5-yl)-2-(5-isopropyl-1H-indazol-4-yl)-4-(4-methoxy-3,3-dimethylpiperidin-1-yl)-5,6,7,8-tetrahydropyrido[4,3-d]pyrimidine] | –
3 | 0.025 | 0.002 | CO[C@@H]1CCN(c2nc(-c3c(C)ccc4[nH]nc(C)c34)nc3c2CN(c2cc(C(C)C)nn2C)CC3)[C@H](C)C1 [Example 23-G, 2-(3,5-dimethyl-1H-indazol-4-yl)-6-(3-isopropyl-1-methyl-1H-pyrazol-5-yl)-4-((2R,4R)-4-methoxy-2-methylpiperidin-1-yl)-5,6,7,8-tetrahydropyrido[4,3-d]pyrimidine] | –
4 | 0.011 | 0.064 | CO[C@H]1CCN(c2nc(-c3c(C)ccc4[nH]nc(C)c34)nc3c2CN(c2cc(C(F)(F)F)nn2C)CC3)CC1(C)C [Example 23-K, (S)-2-(3,5-dimethyl-1H-indazol-4-yl)-4-(4-methoxy-3,3-dimethylpiperidin-1-yl)-6-(1-methyl-3-(trifluoromethyl)-1H-pyrazol-5-yl)-5,6,7,8-tetrahydropyrido[4,3-d]pyrimidine] | –
5 | 0.423 | 0.008 | Cc1ccc(C(C)C)cc1N1CCc2nc(-c3cccc4[nH]cc(C)c34)nc(N3CCN(CC(N)=O)[C@H](C)C3)c2C1 [Example 24-J, (R)-2-(4-(6-(5-isopropyl-2-methylphenyl)-2-(3-methyl-1H-indol-4-yl)-5,6,7,8-tetrahydropyrido[4,3-d]pyrimidin-4-yl)-2-methylpiperazin-1-yl)acetamide] | –
6 | 0.391 | 0.006 | Cc1ccc(C(C)C)cc1N1CCc2nc(-c3c(C)ccc4[nH]ncc34)nc(N3CCN(CC(N)=O)C[C@H]3C)c2C1 [Example 24-L, (R)-2-(4-(6-(5-isopropyl-2-methylphenyl)-2-(5-methyl-1H-indazol-4-yl)-5,6,7,8-tetrahydropyrido[4,3-d]pyrimidin-4-yl)-3-methylpiperazin-1-yl)acetamide] | –
7 | 0.907 | 0.02 | CC(=O)N1CCN(c2nc(-c3cccc4[nH]cc(C)c34)nc3c2CN(c2cc(C4(C)COC4)ccc2C)CC3)[C@H](C)C1 [Example 26-B, (R)-1-(3-Methyl-4-(2-(3-methyl-1H-indol-4-yl)-6-(2-methyl-5-(3-methyloxetan-3-yl)phenyl)-5,6,7,8-tetrahydropyrido[4,3-d]pyrimidin-4-yl)piperazin-1-yl)ethanone] | –
8 | 0.3 | 0.002 | Cc1ccc(C(C)C)cc1N1CCc2nc(-c3cccc4[nH]cc(C)c34)nc(N3CCN(S(C)(=O)=O)[C@H](C)C3)c2C1 [Example 29, (R)-6-(5-isopropyl-2-methylphenyl)-2-(3-methyl-1H-indol-4-yl)-4-(3-methyl-4-(methylsulfonyl)piperazin-1-yl)-5,6,7,8-tetrahydropyrido[4,3-d]pyrimidine] | –
9 | 0.063 | 0.006 | COc1nc(-c2c(C)ccc3[nH]nc(Cl)c23)nc2c1CN(c1cc(C(C)C)ccc1C)CC2 [Example 32-A, 2-(3-Chloro-5-methyl-1H-indazol-4-yl)-6-(5-isopropyl-2-methylphenyl)-4-methoxy-5,6,7,8 tetrahydropyrido[4,3-d]pyrimidine] | –

The remaining lines, values behind:

Row | SMILES | IC50 (CD11b; Homo sapiens) [µM] | IC50 (human C5aR) [µM] | IC50 (CD11b) [µM]
10 | CO[C@@H]1CCN(c2nc(-c3c(C)ccc4[nH]nc(C)c34)nc3c2CN(c2cc(C4CC4)nn2C)CC3)[C@H](C)C1 [Example 23-H, 6-(3-cyclopropyl-1-methyl-1H-pyrazol-5-yl)-2-(3,5-dimethyl-1H-indazol-4-yl)-4-((2R,4R)-4-methoxy-2-methylpiperidin-1-yl)-5,6,7,8-tetrahydropyrido[4,3-d]pyrimidine] | 0.024 | 0.001 | –
11 | CO[C@@H]1CCN(c2nc(-c3c(C)ccc4[nH]nc(C)c34)nc3c2CN(c2cc(C4CC4)nn2C)CC3)CC1(C)C [Example 23-I, (R)-6-(3-cyclopropyl-1-methyl-1H-pyrazol-5-yl)-2-(3,5-dimethyl-1H-indazol-4-yl)-4-(4-methoxy-3,3-dimethylpiperidin-1-yl)-5,6,7,8-tetrahydropyrido[4,3-d]pyrimidine] | 0.022 | 0.0005 | –
12 | CO[C@@H]1CCN(c2nc(-c3c(C)ccc4[nH]nc(C)c34)nc3c2CN(c2cc(C(F)(F)F)nn2C)CC3)[C@H](C)C1 [Example 23-J, 2-(3,5-dimethyl-1H-indazol-4-yl)-4-((2R,4R)-4-methoxy-2-methylpiperidin-1-yl)-6-(1-methyl-3-(trifluoromethyl)-1H-pyrazol-5-yl)-5,6,7,8-tetrahydropyrido[4,3-d]pyrimidine] | 0.038 | 0.008 | –
13 | Cc1c[nH]c2cccc(-c3nc4c(c(N5CCN(CC(N)=O)[C@H](C)C5)n3)CN(c3ccccc3C(F)(F)F)CC4)c12 [Example 24-D, (R)-2-(2-methyl-4-(2-(3-methyl-1H-indol-4-yl)-6-(2-(trifluoromethyl)phenyl)-5,6,7,8 tetrahydropyrido[4,3-d]pyrimidin-4-yl)piperazin-1-yl)acetamide] | 1.5 | 0.091 | –
14 | Cc1ccc(F)cc1N1CCc2nc(-c3cccc4[nH]cc(C)c34)nc(N3CCN(CC(N)=O)[C@H](C)C3)c2C1 [Example 24-E, (R)-2-(4-(6-(5-fluoro-2-methylphenyl)-2-(3-methyl-1H-indol-4-yl)-5,6,7,8-tetrahydropyrido[4,3-d]pyrimidin-4-yl)-2-methylpiperazin-1-yl)acetamide] | 0.385 | 0.075 | –
15 | Cc1ccc(C(F)(F)F)cc1N1CCc2nc(-c3cccc4[nH]cc(C)c34)nc(N3CCN(CC(N)=O)[C@H](C)C3)c2C1 [Example 24-G, (R)-2-(2-methyl-4-(2-(3-methyl-1H-indol-4-yl)-6-(2-methyl-5-(trifluoromethyl)phenyl)-5,6,7,8-tetrahydropyrido[4,3-d]pyrimidin-4-yl)piperazin-1-yl)acetamide] | 0.67 | 0.007 | –
16 | CC(=O)N1CCN(c2nc(-c3cccc4[nH]cc(C)c34)nc3c2CN(c2cc(C4CC4)ccc2C)CC3)[C@H](C)C1 [Example 25-C, (R)-1-(4-(6-(5-cyclopropyl-2-methylphenyl)-2-(3-methyl-1H-indol-4-yl)-5,6,7,8-tetrahydropyrido[4,3-d]pyrimidin-4-yl)-3-methylpiperazin-1-yl)ethanone] | 0.183 | 0.005 | –
17 | Cc1ccc(C(C)C)cc1N1CCc2nc(-c3c(C)cccc3C)nc(N3C[C@H](C)N(CC(N)=O)C[C@H]3C)c2C1 [Example 28-B] | – | 0.003 | 0.107
18 | Cc1ccc(C(C)C)cc1N1CCc2nc(-c3cccc4[nH]cc(C)c34)nc(N3CCN(C4COC4)[C@H](C)C3)c2C1 [Example 30-A, (R)-6-(5-Isopropyl-2-methylphenyl)-2-(3-methyl-1H-indol-4-yl)-4-(3-methyl-4-(oxetan-3-yl)piperazin-1-yl)-5,6,7,8-tetrahydropyrido[4,3-d]pyrimidine] | 5.79 | 0.016 | –
19 | COc1nc(-c2c(C)ccc3[nH]nc(C)c23)nc2c1CN(c1cc(C3(C)COC3)ccc1C)CC2 [Example 31-H, 2-(3,5-dimethyl-1H-indazol-4-yl)-4-methoxy-6-(2-methyl-5-(3-methyloxetan-3-yl)phenyl)-5,6,7,8-tetrahydropyrido[4,3-d]pyrimidine] | 0.072 | 0.077 | –
20 | COc1nc(-c2c(C)ccc3[nH]nc(C)c23)nc2c1CN(c1cc(C(C)C)ccc1C)CC2 [Example 31-I, 2-(3,5-dimethyl-1H-indazol-4-yl)-6-(5-isopropyl-2-methylphenyl)-4-methoxy-5,6,7,8-tetrahydropyrido[4,3-d]pyrimidine] | 0.018 | 0.009 | –
21 | CO[C@H]1CCN(c2nc(-c3c(C)ccc4[nH]nc(Cl)c34)nc3c2CN(c2cc(C(C)C)ccc2C)CC3)CC1(C)C [Example 32-B, (S)-2-(3-Chloro-5-methyl-1H-indazol-4-yl)-6-(5-isopropyl-2-methylphenyl)-4-(4-methoxy-3,3-dimethylpiperidin-1-yl)-5,6,7,8-tetrahydropyrido[4,3-d]pyrimidine] | 0.024 | 0.002 | –
22 | Cc1ccc(C(C)C)cc1N1CCc2nc(-c3cccc4[nH]cc(C)c34)cc(C)c2C1 [Example 40-D, 6-(5-Isopropyl-2-methylphenyl)-4-methyl-2-(3-methyl-1H-indol-4-yl)-5,6,7,8-tetrahydro-1,6-naphthyridine] | – | 0.132 | 0.264
23 | CCc1cccc(CC)c1-c1cc(C)c2c(n1)CCN(c1cc(C3CC3)ccc1C)C2 [Example 40-M, 6-(5-cyclopropyl-2-methylphenyl)-2-(2,6-diethylphenyl)-4-methyl-5,6,7,8-tetrahydro-1,6-naphthyridine] | 0.069 | 0.011 | –
24 | [2H]C1([2H])c2c(C)cc(-c3cccc4[nH]cc(C)c34)nc2CCN1c1cc(C(C)C)ccc1C [Example 40-S] | 0.793 | 0.078 | –
25 | Cc1ccc(C(C)C)cc1N1CCc2nc(-c3c(C(C)C)ccc4[nH]ncc34)cc(C)c2C1 [Example 41-G, 2-(5-isopropyl-1H-indazol-4-yl)-6-(5-isopropyl-2-methylphenyl)-4-methyl-5,6,7,8-tetrahydro-1,6-naphthyridine] | 0.07 | 0.003 | –
